Assay results: ChEMBL document CHEMBL3232917, “Schiff's base derivatives bearing nitroimidazole and quinoline nuclei: new class of anticancer agents and potential EGFR tyrosine kinase inhibitors” (Bioorg Med Chem Lett, 2014)

Legend:
HepG2 = assay: cells; conditions: Homo sapiens, HepG2, 48 h
A549 = assay: cells; conditions: Homo sapiens, A549, 48 h
[1] = molecular target: Epidermal growth factor receptor (Homo sapiens, UniProt P00533); assay: Inhibition of autophosphorylation of EGFR cytoplasmic domain (amino acids 645 to 1186) (unknown origin) expressed in Sf9 cells after 1 hr by time-resolved fluorometry
Chain of Epidermal growth factor receptor (P00533 whole entry, the tested form may be a part): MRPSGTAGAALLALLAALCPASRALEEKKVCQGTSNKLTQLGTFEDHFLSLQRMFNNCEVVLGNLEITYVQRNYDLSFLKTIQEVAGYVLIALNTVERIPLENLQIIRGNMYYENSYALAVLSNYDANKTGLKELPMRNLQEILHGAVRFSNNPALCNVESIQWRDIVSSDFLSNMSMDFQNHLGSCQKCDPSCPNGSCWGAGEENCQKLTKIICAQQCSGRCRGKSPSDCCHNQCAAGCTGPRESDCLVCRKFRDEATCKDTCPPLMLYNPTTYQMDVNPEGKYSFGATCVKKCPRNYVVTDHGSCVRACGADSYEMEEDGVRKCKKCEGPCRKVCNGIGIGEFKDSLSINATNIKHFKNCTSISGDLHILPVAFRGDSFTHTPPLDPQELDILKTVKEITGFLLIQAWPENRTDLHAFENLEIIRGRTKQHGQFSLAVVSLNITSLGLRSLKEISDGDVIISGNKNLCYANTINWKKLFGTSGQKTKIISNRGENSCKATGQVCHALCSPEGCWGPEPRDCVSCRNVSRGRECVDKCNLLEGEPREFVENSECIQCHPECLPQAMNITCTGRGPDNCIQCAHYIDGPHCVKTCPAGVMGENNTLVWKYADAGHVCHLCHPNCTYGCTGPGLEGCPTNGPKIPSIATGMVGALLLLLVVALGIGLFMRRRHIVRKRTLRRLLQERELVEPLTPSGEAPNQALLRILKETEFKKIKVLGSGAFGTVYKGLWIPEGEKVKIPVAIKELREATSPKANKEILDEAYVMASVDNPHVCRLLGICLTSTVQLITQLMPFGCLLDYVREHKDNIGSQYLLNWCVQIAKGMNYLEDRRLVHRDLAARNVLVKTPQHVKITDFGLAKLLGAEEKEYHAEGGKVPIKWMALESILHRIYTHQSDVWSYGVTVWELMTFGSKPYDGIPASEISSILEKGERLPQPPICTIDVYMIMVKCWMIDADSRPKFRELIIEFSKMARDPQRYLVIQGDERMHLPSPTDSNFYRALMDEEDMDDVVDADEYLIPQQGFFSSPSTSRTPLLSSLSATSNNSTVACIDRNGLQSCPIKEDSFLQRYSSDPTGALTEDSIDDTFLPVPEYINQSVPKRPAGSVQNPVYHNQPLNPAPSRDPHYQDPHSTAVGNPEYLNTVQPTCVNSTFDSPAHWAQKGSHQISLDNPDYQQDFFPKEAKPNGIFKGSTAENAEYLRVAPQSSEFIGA

[2] = molecular target: Receptor tyrosine-protein kinase erbB-2 (Homo sapiens) (UniProt P04626); assay: Inhibition of autophosphorylation of human HER2 cytoplasmic domain (amino acids 676 to 1245) (unknown origin) expressed in Sf9 cells after 1 hr by time-resolved fluorometry
Chain of Receptor tyrosine-protein kinase erbB-2 (Homo sapiens) (P04626 whole entry, looked up, the tested form may be a part): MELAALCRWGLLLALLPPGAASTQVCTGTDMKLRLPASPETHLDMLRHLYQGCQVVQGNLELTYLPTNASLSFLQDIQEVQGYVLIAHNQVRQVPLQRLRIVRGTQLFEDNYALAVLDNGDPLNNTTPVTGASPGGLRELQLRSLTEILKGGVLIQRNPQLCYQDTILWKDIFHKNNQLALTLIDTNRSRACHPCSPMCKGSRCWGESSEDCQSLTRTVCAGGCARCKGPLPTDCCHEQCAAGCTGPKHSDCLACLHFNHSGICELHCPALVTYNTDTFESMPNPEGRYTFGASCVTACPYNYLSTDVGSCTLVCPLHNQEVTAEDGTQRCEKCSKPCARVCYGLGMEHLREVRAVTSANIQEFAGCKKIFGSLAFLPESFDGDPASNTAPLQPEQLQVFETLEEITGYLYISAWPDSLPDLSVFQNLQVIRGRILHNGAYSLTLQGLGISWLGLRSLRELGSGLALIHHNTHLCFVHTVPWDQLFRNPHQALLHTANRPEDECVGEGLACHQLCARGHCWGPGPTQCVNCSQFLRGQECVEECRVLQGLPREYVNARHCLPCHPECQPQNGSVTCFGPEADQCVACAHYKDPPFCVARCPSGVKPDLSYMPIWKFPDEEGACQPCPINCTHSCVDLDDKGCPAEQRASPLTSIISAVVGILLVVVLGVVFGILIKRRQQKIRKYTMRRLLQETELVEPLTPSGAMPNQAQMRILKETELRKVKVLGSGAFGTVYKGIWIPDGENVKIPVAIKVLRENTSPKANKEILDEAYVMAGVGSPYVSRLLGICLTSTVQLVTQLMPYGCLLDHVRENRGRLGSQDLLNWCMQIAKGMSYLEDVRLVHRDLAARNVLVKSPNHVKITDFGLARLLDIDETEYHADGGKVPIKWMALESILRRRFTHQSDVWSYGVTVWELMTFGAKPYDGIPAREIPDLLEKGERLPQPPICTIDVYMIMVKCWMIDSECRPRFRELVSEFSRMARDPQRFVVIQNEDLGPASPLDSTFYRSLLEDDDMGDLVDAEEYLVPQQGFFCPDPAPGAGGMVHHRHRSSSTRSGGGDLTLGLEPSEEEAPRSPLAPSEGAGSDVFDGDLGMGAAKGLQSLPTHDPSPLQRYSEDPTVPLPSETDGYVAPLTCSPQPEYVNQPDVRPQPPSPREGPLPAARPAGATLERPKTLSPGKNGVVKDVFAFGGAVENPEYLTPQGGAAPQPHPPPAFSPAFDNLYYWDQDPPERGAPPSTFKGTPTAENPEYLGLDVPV

Row | Structure (SMILES) | IC50 (HepG2) | IC50 (A549) | IC50 [1] | IC50 [2]
1 | Cc1ncc([N+](=O)[O-])n1CC(=O)N/N=C/c1cc2ccccc2nc1Oc1ccccc1 | 13.3 µM | 9.45 µM | – | –
2 | Cc1ccc2nc(Oc3ccccc3)c(/C=N/NC(=O)Cn3c([N+](=O)[O-])cnc3C)cc2c1 | 15.1 µM | 7.18 µM | 3.17 µM | 1.58 µM
3 | Cc1ccc(Oc2nc3ccc(C)cc3cc2/C=N/NC(=O)Cn2c([N+](=O)[O-])cnc2C)cc1 | 21.9 µM | 1.19 µM | 0.18 µM | 17 µM
4 | Cc1ccc2nc(Oc3ccc(F)cc3)c(/C=N/NC(=O)Cn3c([N+](=O)[O-])cnc3C)cc2c1 | 1.56 µM | 0.19 µM | 0.42 µM | 0.43 µM
5 | Cc1ccc2nc(Oc3ccc(Cl)cc3)c(/C=N/NC(=O)Cn3c([N+](=O)[O-])cnc3C)cc2c1 | 3.18 µM | 1.23 µM | 8.66 µM | 19 µM

Now from value to compound:

Row | IC50 (HepG2) | IC50 (A549) | IC50 [1] | IC50 [2] | Structure (SMILES)
6 | 27.1 µM | 21.5 µM | 23.1 µM | 7.67 µM | Cc1ccc(Oc2nc3ccccc3cc2/C=N/NC(=O)Cn2c([N+](=O)[O-])cnc2C)cc1
7 | 4.13 µM | 0.92 µM | 0.27 µM | 12 µM | COc1ccc(Oc2nc3ccccc3cc2/C=N/NC(=O)Cn2c([N+](=O)[O-])cnc2C)cc1
8 | 0.18 µM | 3.12 µM | 21 µM | 0.37 µM | Cc1ncc([N+](=O)[O-])n1CC(=O)N/N=C/c1cc2ccccc2nc1Oc1ccc(F)cc1
9 | 0.22 µM | 9.03 µM | 5.12 µM | 4.1 µM | Cc1ncc([N+](=O)[O-])n1CC(=O)N/N=C/c1cc2ccccc2nc1Oc1ccc(Cl)cc1
10 | 3.15 µM | 0.16 µM | 0.12 µM | 2.18 µM | COc1ccc(Oc2nc3ccc(C)cc3cc2/C=N/NC(=O)Cn2c([N+](=O)[O-])cnc2C)cc1
